This note sets out measurements from patent US20030078274A1, “Method of reducing neuronal injury or apoptosis” (priority 1999, published 2003).

Assay [1] concerns cultured RGCs. Kind of assay: NMDA-induced apoptosis in cultured RGCs. The class given is cell-based, Long-Evans rats. Conditions: 1 μM; 300 μM NMDA/5 μM glycine for 18 hr. Here is the method:
Retinal cell cultures. Retinal cells were prepared from 6-10 day old Long-Evans rats as described in Leifer et al., Science 224:303-306 (1984). Briefly, following dissociation in papain, retinal cells were plated on poly-L-lysine-coated glass coverslips in Eagle's minimum essential medium. RGCs were identified by immunocytochemical staining using an anti-Thy-1 antibody (2G12), which is specific among rat retinal cells for the ganglion cells.
Assessment of NMDA-induced apoptosis in cultured RGCs. To induce predominantly apoptosis (See Bonfoco et al., Proc. Natl. Acad. Sci. USA 92:7162-7166 (1995); Dreyer et al., Neuroreport 6:942-944 (1995)), retinal cell cultures were exposed to 300 μM NMDA/5 μM glycine for 18 hr in high calcium (3 mM) medium. For specific labeling of RGCs, the cultures were incubated with anti-Thy-1 antibody for 1 hr. Following 3 washes with PBS, cells were incubated in goat-anti-mouse-IgG-FITC for 1 hr. For assessment of apoptosis, retinal cells were fixed, permeabilized and stained with 20 μg/ml propidium iodide for 5 min, as described in Ankarcrona et al., Neuron 15:961-973 (1995). Briefly, coverslips containing the cells were washed once with PBS and permeabilized with 85% methanol for 10 min. […] Apoptotic nuclei were scored in cells that were also stained by anti-Thy-1, and expressed as a fraction of total RGCs.

The subject of assay [2] is neurons in rat cerebrocortical cultures (gp120-induced apoptosis). Kind of assay: gp120-induced neuronal apoptosis in rat cerebrocortical cultures. The class given is cell-based, Sprague-Dawley rats. Conditions: SB 203580 10 μM, applied 15 min before gp120. As to the method: The model used in the assays described below, i.e., rat cerebrocortical cultures, was prepared from embryos of Sprague-Dawley rats at day 15 to 17 of gestation. See Lei et al., Neuron 8:1087-1099 (1992) and Lipton et al., Nature 364:626-632 (1993). Cultures were used for experiments after 17 to 24 days in culture. […] Prior to some experiments, macrophages/microglia or neurons were depleted from the cultures by exposure to 7.5 mM L-leucine methyl ester or 2 mM N-methyl-D-aspartate (NMDA), respectively. See Lipton, NeuroReport 3:913-915 (1992). […] In some experiments, the Griess reaction was used to measure nitrite levels in the culture medium as an index of nitric oxide (NO) release. See Chao et al., Glia 16:276-284 (1996).
Cultures were transferred into Earle's Balanced Salt Solution (EBSS) and incubated for 24 hours with gp120, chemokines, Tuftsin fragment 1-3, i.e., Thr-Lys-Pro (TKP), p38 MAPK inhibitor SB 203580 (i.e., 4-(4-fluorophenyl)-2-(4-methylsulfinylphenyl)-5-(4-pyridyl)imidazole, Calbiochem, San Diego, Calif.), or combinations thereof. Chemokines or TKP were applied for 5 minutes and SB 203580 for 15 minutes prior to gp120 exposure.
TKP was obtained from Sigma (St. Louis, Mo.). Recombinant human MIP-1β, SDF-1α, SDF-1β, and recombinant rat RANTES were purchased from R&D systems ([…].) and Endogen (Woburn, Mass.), respectively. HIV-1 envelope glycoprotein gp120 from the strain SF2 was obtained from the NIH AIDS Research and Reference Reagent Program, Division of AIDS, NIAID, NIH. See Scandella et al., AIDS Res. Hum. Retroviruses 9:1233-1244 (1993). Additional gp120s from HIV-1 strains IIIB and RF2 were obtained from Genetech and the National Cancer Institute, respectively. TNFα, IFNγ, and IL-1β were from Genzyme (Cambridge, Mass.), Gibco BRL (Grand Island, N.Y.) and Endogen (Woburn, Mass.), respectively.
Neuronal apoptosis in the above-described assays was assessed using a variety of techniques, e.g., staining of permeabilized cells with propidium iodide to determine apoptotic morphology, and a neuron-specific antibody (against NeuN or MAP-2) to identify cell type. In brief, cells were fixed for 5 minutes with ice-cold acetone at −20° C. and, after three washes in PBS, for 4 minutes with 2% (w/v) paraformaldehyde solution in PBS at room temperature (RT). Acetone-paraformaldehyde-fixed cells were permeabilized using 0.2% Tween 20 in PBS (PBST), and non-specific binding sites were blocked by incubation for 1 hour with a 10% solution of heat-inactivated goat serum in PBST. To specifically stain neurons, cells were then incubated for 4 hours at RT or overnight at 4° C. with 1:500 dilutions of anti-MAP-2 (Sigma) or anti-NeuN monoclonal antibody (mAb; Chemicon, Temecula, Calif.). Their respective non-specific isotype antibodies served as controls. After three washes, the cells were incubated in a secondary polyclonal antibody (pAb) conjugated either to fluorescein isothiocyanate (FITC) or to horseradish peroxidase (HRP). In the case of HRP-coupled pAb, diaminobenzidine (DAB) served as the color substrate developed by incubation in a mixture of 1 mg/ml DAB and 0.8% H2O2 at a ratio of 3:1. Cellular nuclei were subsequently stained with […] propidium iodide for 5 minutes in the dark, and then coverslips were mounted on glass slides. Experiments were replicated at least 3 times with triplicate values in each experiment. Statistical significance was judged by an analysis of variance (ANOVA) followed by a Scheffé or Bonferroni/Dunn post hoc test.

Turning to `C[S+]([O-])c1ccc(-c2nc(-c3ccc(F)cc3)c(-c3ccncc3)[nH]2)cc1` (centres unmarked) [SB 203580, 4-(4-fluorophenyl)-2-(4-methylsulfinylphenyl)-5-(4-pyridyl)-1H-imidazole], in assay [1], the “survival of RGCs in the face of NMDA exposure” value is “significantly increased”. The “effect on gp120SF2-induced neuronal apoptosis” value in assay [2] is recorded as “substantially attenuated”.
